# Test results published in ChEMBL document CHEMBL3600303, “The N-Terminal T-T Motif of a Third-Generation HIV-1 Fusion Inhibitor Is Not Required for Binding Affinity and Antiviral Activity” (J Med Chem, 2015).
# pIC50: −log10 of the molar value. Calls of active or inactive are those of the source. The calls are words filed in the database; no cut-off is given here.
# What was measured:
# [1] = biological target: Envelope glycoprotein gp160 (Human immunodeficiency virus type 1 group M subtype B (isolate HXB2)(HIV-1)) (UniProt P04578); experiment: Binding affinity to HIV-1 HXB2 gp41 N-terminal heptad repeat assessed as thermostability of compound after 30 mins by CD spectroscopic analysis; conditions: Human immunodeficiency virus 1
# [2] = tested on: Human immunodeficiency virus 1; experiment: Antiviral activity against HIV1 NL4-3 pseudovirus infected in human TZM-bl cells assessed as inhibition of viral entry into cells after 48 hrs by single-cycle infection assay; assay type: functional, organism-based; conditions: Human immunodeficiency virus 1, NL4-3, TZM-bl
# [3] = tested on: Human immunodeficiency virus 1; experiment: Antiviral activity against HIV-1 ZM214M.15 pseudovirus infected in human TZM-bl cells assessed as inhibition of viral entry into cells after 48 hrs by single-cycle infection assay; assay type: functional, organism-based; conditions: Human immunodeficiency virus 1, ZM214M.15, TZM-bl
# [4] = Thermostability of the compound in PBS assessed as melting temperature at 20 uM by CD spectroscopic analysis; assay type: physicochemical; conditions: buffer
# [5] = biological target: Envelope glycoprotein gp160 (Human immunodeficiency virus 1) (UniProt Q72502); experiment: Binding affinity to HIV1 NL4-3 gp41 N-terminal heptad repeat Q40H mutant after 30 mins by CD spectroscopic analysis
# [6] = biological target: Envelope glycoprotein gp160 (Human immunodeficiency virus type 1 group M subtype B (isolate HXB2)(HIV-1)) (UniProt P04578); experiment: Binding affinity to HIV-1 HXB2 gp41 N-terminal heptad repeat assessed as thermostability of protein-compound complex at 10 uM after 30 mins by CD spectroscopic analysis; conditions: Human immunodeficiency virus 1
# [7] = tested on: Envelope glycoprotein gp160 (Human immunodeficiency virus 1), Q72502 [V38A]; experiment: Binding affinity to HIV1 NL4-3 gp41 N-terminal heptad repeat V38A mutant after 30 mins by CD spectroscopic analysis
# [8] = tested on: Human immunodeficiency virus 1; experiment: Antiviral activity against HIV-1 SF162 pseudovirus infected in human TZM-bl cells assessed as inhibition of viral entry into cells after 48 hrs by single-cycle infection assay; assay type: functional, organism-based; conditions: Human immunodeficiency virus 1, SF162, TZM-bl
# [9] = biological target: Envelope glycoprotein gp160 (Human immunodeficiency virus type 1 group M subtype B (isolate HXB2)(HIV-1)) (UniProt P04578); experiment: Binding affinity to HIV-1 HXB2 gp41 N-terminal heptad repeat assessed as increase in 6-helix bundle thermostability at 10 uM after 30 mins by CD spectroscopic analysis; conditions: Human immunodeficiency virus 1
# [10] = tested on: Human immunodeficiency virus 1; experiment: Antiviral activity against HIV-1 SC42261.8 pseudovirus infected in human TZM-bl cells assessed as inhibition of viral entry into cells after 48 hrs by single-cycle infection assay; assay type: functional, organism-based; conditions: Human immunodeficiency virus 1, SC42261.8, TZM-bl
# [11] = biological target: Envelope glycoprotein gp160 (Human immunodeficiency virus 1) (UniProt Q72502); experiment: Binding affinity to HIV1 NL4-3 gp41 N-terminal heptad repeat I37T/N43K double mutant after 30 mins by CD spectroscopic analysis
# [12] = tested on: Human immunodeficiency virus 1; experiment: Antiviral activity against wild type HIV1 NL4-3 infected in human TZM-bl cells assessed as inhibition of viral replication after 2 days by luciferase reporter gene assay; assay type: functional, organism-based; conditions: Human immunodeficiency virus 1, NL4-3, TZM-bl, 48 h
# [13] = biological target: Envelope glycoprotein gp160 (Human immunodeficiency virus 1) (UniProt Q72502); experiment: Binding affinity to HIV1 NL4-3 gp41 N-terminal heptad repeat V38A/N42T double mutant after 30 mins by CD spectroscopic analysis
# [14] = biological target: Envelope glycoprotein gp160 (Human immunodeficiency virus 1) (UniProt Q72502); experiment: Binding affinity to HIV1 NL4-3 gp41 N-terminal heptad repeat I37T mutant after 30 mins by CD spectroscopic analysis
# [15] = biological target: Envelope glycoprotein gp160 (Human immunodeficiency virus 1) (UniProt Q72502); experiment: Binding affinity to HIV1 NL4-3 gp41 N-terminal heptad repeat N43K mutant after 30 mins by CD spectroscopic analysis
# [16] = biological target: Envelope glycoprotein gp160 (Human immunodeficiency virus 1) (UniProt Q72502); experiment: Binding affinity to HIV1 NL4-3 gp41 N-terminal heptad repeat G36D mutant after 30 mins by CD spectroscopic analysis
# Serum = experiment: Metabolic stability in Sprague-Dawley rat serum at 4 mg/kg, ip measured at 0.5 to 4 hrs post dose; assay type: ADME, organism-based; conditions: in vivo
# [17] = biological target: Envelope glycoprotein gp160 (Human immunodeficiency virus type 1 group M subtype B (isolate HXB2)(HIV-1)) (UniProt P04578); experiment: Binding affinity to HIV-1 HXB2 gp41 N-terminal heptad repeat assessed as thermostability of compound at 10 uM after 30 mins by CD spectroscopic analysis; conditions: Human immunodeficiency virus 1
# [18] = tested on: Human immunodeficiency virus 1; experiment: Antiviral activity against ENF-resistant HIV1 NL4-3 harboring gp41 N-terminal heptad repeat D36G mutant infected in human TZM-bl cells assessed as inhibition of viral entry into cells after 48 hrs by single-cycle infection assay; assay type: functional, organism-based
# [19] = tested on: Human immunodeficiency virus 1; experiment: Antiviral activity against wild type HIV1 NL4-3 infected in human TZM-bl cells assessed as inhibition of viral entry into cells after 48 hrs by single-cycle infection assay; assay type: functional, organism-based; conditions: Human immunodeficiency virus 1, NL4-3, TZM-bl
# [20] = tested on: Human immunodeficiency virus 1; experiment: Antiviral activity against ENF-resistant HIV1 NL4-3 harboring gp41 N-terminal heptad repeat N43K mutant infected in human TZM-bl cells assessed as inhibition of viral entry into cells after 48 hrs by single-cycle infection assay; assay type: functional, organism-based
# [21] = tested on: Human immunodeficiency virus 1; experiment: Antiviral activity against ENF-resistant HIV1 NL4-3 harboring gp41 N-terminal heptad repeat D36S/V38M double mutant infected in human TZM-bl cells assessed as inhibition of viral entry into cells after 48 hrs by single-cycle infection assay; assay type: functional, organism-based
# [22] = tested on: Human immunodeficiency virus 1; experiment: Ratio of IC50 for ENF-resistant HIV1 NL4-3 harboring gp41 N-terminal heptad repeat I37T mutant to IC50 for wild type HIV1 NL4-3; assay type: functional
# [23] = tested on: Human immunodeficiency virus 1; experiment: Antiviral activity against ENF-resistant HIV1 NL4-3 harboring gp41 N-terminal heptad repeat I37T/N43K double mutant infected in human TZM-bl cells assessed as inhibition of viral entry into cells after 48 hrs by single-cycle infection assay; assay type: functional, organism-based
# [24] = tested on: Human immunodeficiency virus 1; experiment: Ratio of IC50 for ENF-resistant HIV1 NL4-3 harboring gp41 N-terminal heptad repeat I37T/N43K double mutant to IC50 for wild type HIV1 NL4-3; assay type: functional
# [25] = tested on: Human immunodeficiency virus 1; experiment: Ratio of IC50 for ENF-resistant HIV1 NL4-3 harboring gp41 N-terminal heptad repeat V38A mutant to IC50 for wild type HIV1 NL4-3; assay type: functional
# [26] = tested on: Human immunodeficiency virus 1; experiment: Antiviral activity against ENF-resistant HIV1 NL4-3 harboring gp41 N-terminal heptad repeat Q40H mutant infected in human TZM-bl cells assessed as inhibition of viral entry into cells after 48 hrs by single-cycle infection assay; assay type: functional, organism-based
# [27] = tested on: Human immunodeficiency virus 1; experiment: Antiviral activity against ENF-resistant HIV1 NL4-3 harboring gp41 N-terminal heptad repeat V38A mutant infected in human TZM-bl cells assessed as inhibition of viral entry into cells after 48 hrs by single-cycle infection assay; assay type: functional, organism-based
# [28] = tested on: Human immunodeficiency virus 1; experiment: Antiviral activity against HIV-1 pseudovirus harboring Q66R/N126K double mutant; assay type: functional, organism-based
# [29] = tested on: Human immunodeficiency virus 1; experiment: Antiviral activity against ENF-resistant HIV1 NL4-3 harboring gp41 N-terminal heptad repeat V38M mutant infected in human TZM-bl cells assessed as inhibition of viral entry into cells after 48 hrs by single-cycle infection assay; assay type: functional, organism-based
# [30] = tested on: Human immunodeficiency virus 1; experiment: Antiviral activity against ENF-resistant HIV1 NL4-3 harboring gp41 N-terminal heptad repeat I37T mutant infected in human TZM-bl cells assessed as inhibition of viral entry into cells after 48 hrs by single-cycle infection assay; assay type: functional, organism-based
# [31] = tested on: Human immunodeficiency virus 1; experiment: Antiviral activity against ENF-resistant HIV1 NL4-3 harboring gp41 N-terminal heptad repeat V38A/N42T double mutant infected in human TZM-bl cells assessed as inhibition of viral entry into cells after 48 hrs by single-cycle infection assay; assay type: functional, organism-based
# [32] = tested on: Human immunodeficiency virus 1; experiment: Ratio of IC50 for ENF-resistant HIV1 NL4-3 harboring gp41 N-terminal heptad repeat Q40H mutant to IC50 for wild type HIV1 NL4-3; assay type: functional
# [33] = tested on: Human immunodeficiency virus 1; experiment: Ratio of IC50 for ENF-resistant HIV1 NL4-3 harboring gp41 N-terminal heptad repeat V38A/N42T double mutant to IC50 for wild type HIV1 NL4-3; assay type: functional
# [34] = tested on: Human immunodeficiency virus 1; experiment: Ratio of IC50 for ENF-resistant HIV1 NL4-3 harboring gp41 N-terminal heptad repeat N43K mutant to IC50 for wild type HIV1 NL4-3; assay type: functional
# [35] = tested on: Human immunodeficiency virus 1; experiment: Antiviral activity against wild type HIV-1; assay type: functional, organism-based
# [36] = tested on: Human immunodeficiency virus 1; experiment: Ratio of IC50 for ENF-resistant HIV1 NL4-3 harboring gp41 N-terminal heptad repeat V38M mutant to IC50 for wild type HIV1 NL4-3; assay type: functional
# [37] = tested on: Human immunodeficiency virus 1; experiment: Ratio of IC50 for ENF-resistant HIV1 NL4-3 harboring gp41 N-terminal heptad repeat D36G mutant to IC50 for wild type HIV1 NL4-3; assay type: functional
# [38] = tested on: Human immunodeficiency virus 1; experiment: Ratio of IC50 for ENF-resistant HIV1 NL4-3 harboring gp41 N-terminal heptad repeat D36S/V38M double mutant to IC50 for wild type HIV1 NL4-3; assay type: functional
# [39] = biological target: Envelope glycoprotein gp160 (Human immunodeficiency virus type 1 group M subtype B (isolate HXB2)(HIV-1), UniProt P04578); experiment: Binding affinity to HIV-1 HXB2 gp41 N-terminal heptad repeat assessed as inhibition of 6-helix bundle formation after 30 mins by ELISA; design: species or system Human immunodeficiency virus 1
substance,measurement,setting,value
H-MTWEAWDRAIAEYAARIEALIR-OH,Tm,[1],68.2 °C
same,pIC50,[2],7.06
H-MTWEAWDRAIAEYAARIEALIRAAQEQQEKNEAALREL-OH,pIC50,[3],9.13
same,pIC50,[2],9.34
same,Stability,[4],Stable
same,Activity,[5],Active
same,Tm,[6],88.1 °C
same,Activity,[7],Active
same,pIC50,[8],8.30
same,Activity,[9],Active
same,pIC50,[10],8.78
same,Activity,[11],Active
same,pIC50,[12],9.60
same,Activity,[13],Active
same,Activity,[14],Active
same,Activity,[15],Active
same,Activity,[16],Active
same,Stability,Serum,Unstable
H-MTWEEWDKKIEEYTKKIEELI-OH,pIC50,[2],8.37
same,Tm,[17],76.2 °C
same,pIC50,[12],8.50
H-MTWEEWDKKIEEYTKKIEELIKKS-OH,pIC50,[2],8.89
same,Tm,[17],78.2 °C
same,pIC50,[12],9.05
H-TTWEAWDRAIAEYAARIEALIR-OH,Tm,[1],59.1 °C
same,pIC50,[2],6.02
H-TTWEEWDKKIEEYTKKIEELI-OH,pIC50,[2],7.72
same,Tm,[17],66.2 °C
same,pIC50,[12],7.76
H-TTWEEWDKKIEEYTKKIEELIKKS-OH,pIC50,[2],7.33
same,Tm,[17],66.3 °C
same,pIC50,[12],7.58
H-WEAWDRAIAEYAARIEALIRAAQEQQEKNEAALREL-OH,pIC50,[18],8.72
same,pIC50,[19],8.96
same,pIC50,[20],8.68
same,pIC50,[21],9.00
same,Ratio IC50,[22],1.8
same,pIC50,[3],9.14
same,pIC50,[2],8.97
same,pIC50,[23],8.72
same,Ratio IC50,[24],1.7
same,Tm,[4],46.1 °C
same,Ratio IC50,[25],1.3
same,Activity,[5],Active
same,Tm,[6],81.2 °C
same,pIC50,[26],8.92
same,pIC50,[27],8.85
same,pIC50,[28],8.15
same,pIC50,[29],8.77
same,pIC50,[30],8.70
same,pIC50,[31],9.22
same,Activity,[7],Active
same,pIC50,[8],8.24
same,Ratio IC50,[32],1.1
same,Ratio IC50,[33],0.6
same,Ratio IC50,[34],1.9
same,pIC50,[10],8.78
same,pIC50,[35],8.87
same,Ratio IC50,[36],1.6
same,Ratio IC50,[37],1.7
same,Activity,[11],Active
same,pIC50,[12],9.32
same,Activity,[13],Active
same,Activity,[14],Active
same,Ratio IC50,[38],0.9
same,Activity,[15],Active
same,pIC50,[39],7.11
same,Activity,[16],Active
same,Stability,Serum,Stable
